# Data reported in patent US20220030868A1, “FUNGICIDAL HALOMETHYL KETONES AND HYDRATES” (FMC CORPORATION, priority 2018, published 2022).
# Tests used:
# [1] = tested on: Puccinia recondita f. sp. tritici; assay: Test B: test suspension sprayed on wheat seedlings one day before inoculation with Puccinia recondita f. sp. tritici spores (wheat leaf rust), disease rating; assay type: in vivo; settings: 100 = 100% disease control, 0 = no control
# Method in brief: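 Wheat seedlings were sprayed to run-off with compound suspended in 50/50 acetone/water containing 250 ppm PEG400, then inoculated with P. recondita f. sp. tritici spores the next day. Plants were held 24 h in saturated air at 20 °C, then 6 days in a growth chamber at 20 °C. Disease control was rated 0–100% relative to controls, with some entries run at 50 or 10 ppm.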
# Phakopsora pachyrhizi = assay: Test A: test suspension sprayed on soybean seedlings one day before inoculation with Phakopsora pachyrhizi spores (Asian soybean rust), visual disease rating; assay type: in vivo; settings: 100 = 100% disease control, 0 = no control
# Method in brief: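 Compound dissolved in acetone (3% of final volume), then suspended at the stated ppm in 50/50 acetone/water with 250 ppm PEG400 surfactant; sprayed to run-off on soybean seedlings, inoculated with P. pachyrhizi spores next day. Held saturated at 22° C for 24 h, then 8 days at 22° C; visual rating as % disease control versus controls.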
SMILES,Test B rating (disease control) ([1]; 10 ppm test suspension) [%],Test A rating (disease control) (Phakopsora pachyrhizi; 10 ppm test suspension) [%],further results
COC(=O)c1cnn(Cc2ccc(OCC(O)(O)C(F)(F)F)cc2)c1 [Compound 37],86,99,
"COC(=O)c1ccc(OCC(O)(O)C(F)(F)F)cc1 [Compound 229, methyl 4-(3,3,3-trifluoro-2,2-dihydroxypropoxy)phenylcarboxylate]",,,"pest or weed control at 50 ppm ([1]; 50 ppm test suspension): 100%; pest or weed control at 50 ppm (Phakopsora pachyrhizi; Phakopsora pachyrhizi, 50 ppm test suspension): 99%"
O=C(NCC(F)(F)F)c1cnc(Cc2ccc(OCC(O)(O)C(F)(F)F)cc2)o1 [Compound 274],0,48,
C=C(C)COC(=O)c1cnn(Cc2ccc(O/C=C(\OCC)C(F)(F)F)cc2)c1 [compound 242],0,100,
CCO/C(=C\Oc1ccc(Cn2ccc(C(=O)OC(C)C)n2)cc1)C(F)(F)F [compound 327],0,100,
CCS(=O)(=O)Cc1ccc(OCC(O)(O)C(F)(F)F)cc1 [Compound 29],28,84,
C=C(C)COC(=O)c1cnn(Cc2cccc(O/C=C(\OCC)C(F)(F)F)c2)c1 [compound 335],0,100,
CCNC(=O)c1cnn(Cc2cccc(C/C=C(\OCC)C(F)(F)F)c2)c1 [compound 343],0,0,
"CCCOC(=O)c1cnn(Cc2cccc(O/C=C(\OCC)C(F)(F)F)c2)c1 [Compound 331, propyl 1-[[3-[[(1Z)-2-ethoxy-3,3,3-trifluoro-1-propen-1-yl]oxy]phenyl]methyl]-1H-pyrazole-4-carboxylate]",,,"pest or weed control at 10 ppm ([1]; 10 ppm test suspension): 0%; pest or weed control at 10 ppm (Phakopsora pachyrhizi; Phakopsora pachyrhizi, 10 ppm test suspension): 100%"
CCOC(=O)c1cnn(Cc2ccc(CCC3(C(F)(F)F)OCCO3)cc2)c1 [compound 67],,,Test B rating (disease control) ([1]; 50 ppm test suspension): 0%; Test A rating (disease control) (Phakopsora pachyrhizi; 50 ppm test suspension): 65%
CCO/C(=C\Oc1ccc(CNC(=O)C(C)C)cc1)C(F)(F)F [compound 210],0,0,
CCOC(=O)c1csc(Cc2ccc(OCC3(C(F)(F)F)OCCO3)cc2)n1 [Compound 137],0,79,
CCO/C(=C\Oc1ccc(Cn2cc(C(=O)OC)c3ccccc32)cc1)C(F)(F)F [compound 91],0,0,
OC(O)(CCc1ccc(Cn2ccc3ccccc32)cc1)C(F)(F)F [Compound 30],0,0,
COCCNC(=O)c1csc(Cc2ccc(OCC(O)(O)C(F)(F)F)cc2)n1 [Compound 223],0,75,
CCO/C(=C\Oc1ccc(S(=O)(=O)N(C)C)cc1)C(F)(F)F [compound 61],0,0,
CCO/C(=C\Oc1ccc(Cc2ncc(C(=O)NCC(F)F)o2)cc1)C(F)(F)F [compound 255],0,89,
CCOC(=O)c1cc(OC)n(Cc2ccc(O/C=C(\OCC)C(F)(F)F)cc2)n1 [compound 90],0,100,
O=C(c1csc(Cc2ccc(OCC(O)(O)C(F)(F)F)cc2)n1)N1CCC1 [Compound 215],55,80,
CCOC(=O)c1cnn(CCCc2ccc(OCC(O)(O)C(F)(F)F)cc2)c1 [Compound 286],55,87,
CCOC(=O)c1cnn(Cc2ccc(OCC3(C(F)(F)F)NCCO3)cc2)c1 (stereo not drawn) [Compound 21],23,84,

SMILES,Test B rating (disease control) ([1]; 10 ppm test suspension) [%],Test A rating (disease control) (Phakopsora pachyrhizi; 10 ppm test suspension) [%],further results
O=C(OCc1cccnc1)c1cnn(Cc2ccc(OCC3(C(F)(F)F)OCCO3)cc2)c1 [compound 200],0,100,
CCO/C(=C\Oc1ccc(CC#N)cc1)C(F)(F)F [compound 154],0,0,
CCOCc1cnn(Cc2ccc(OCC3(C(F)(F)F)OCCO3)cc2)c1 [compound 240],0,99,
CCO/C(=C\Oc1ccc(Cn2ccc(C(F)(F)F)n2)cc1)C(F)(F)F [compound 181],0,0,
COC(=O)COC(=O)c1cnn(Cc2ccc(OCC3(C(F)(F)F)OCCO3)cc2)c1 [compound 203],0,50,
O=C(OCC1CCCC1)c1cnn(Cc2ccc(OCC3(C(F)(F)F)OCCO3)cc2)c1 [compound 284],0,100,
C=CCOC(=O)c1cnn(Cc2ccc(OCC3(C(F)(F)F)OCCO3)cc2)c1 [compound 188],0,100,
CCO/C(=C\Oc1ccc(CNC(=O)CC)cc1)C(F)(F)F [compound 150],0,33,
CCO/C(=C\Oc1cccc(Cn2cc(C(=O)OCC3CC3)cn2)c1)C(F)(F)F [compound 341],0,100,
O=C(O)c1cnn(Cc2ccc(OCC3(C(F)(F)F)OCCO3)cc2)c1 [compound 93],0,96,
CCO/C(=C\Oc1ccc(Cn2cc(C(=O)OC(C)(C)C)cn2)cc1)C(F)(F)F [compound 89],0,0,
CCO/C(=C\Oc1ccc(CN2CCC(OC)CC2)cc1)C(F)(F)F [compound 312],0,0,
CC(C)COC(=O)NCc1ccc(OCC2(C(F)(F)F)OCCO2)cc1 [compound 112],0,0,
CCOC(=O)c1cnn(C(C)c2ccc(O/C=C(\OCC)C(F)(F)F)cc2)c1 (stereo not drawn) [compound 267],0,94,
CCO/C(=C\Oc1ccc(S(C)(=O)=O)cc1)C(F)(F)F [compound 60],0,0,
C#CCOC(=O)c1cnn(Cc2ccc(OCC(O)(O)C(F)(F)F)cc2)c1 [Compound 44],85,97,
CC(C)OC(=O)c1cnn(Cc2ccc(OCC3(C(F)(F)F)OCCO3)cc2)c1 [compound 14],0,100,
OCc1ccc(OCC2(C(F)(F)F)OCCO2)cc1 [compound 178],0,0,
CCOC(=O)c1cnn(Cc2ccc(SCC3(C(F)(F)F)OCCO3)cc2)c1 [compound 115],,,Test B rating (disease control) ([1]; 250 ppm test suspension): 0%; Test A rating (disease control) (Phakopsora pachyrhizi; 250 ppm test suspension): 0%
N#Cc1ccc(OCC2(C(F)(F)F)OCCO2)cc1 [compound 98],,,Test B rating (disease control) ([1]; 250 ppm test suspension): 100%; Test A rating (disease control) (Phakopsora pachyrhizi; 250 ppm test suspension): 100%
CCOC(=O)c1cnn(C(C)c2cccc(O/C=C(\OCC)C(F)(F)F)c2)c1 (stereo not drawn) [compound 304],,,Test B rating (disease control) ([1]; 50 ppm test suspension): 0%; Test A rating (disease control) (Phakopsora pachyrhizi; 50 ppm test suspension): 96%
